Assay results as given in patent publication US20150344407A1, “FENDILINE DERIVATIVES AND METHODS OF USE THEREOF” (THE BOARD OF REGENTS OF THE UNIVERSITY OF TEXAS SYSTEM, priority 2012, published 2015).

Assays:
[1] = test system: phosphorylated ERK, a protein activated downstream of K-ras; assay: Western immunoblotting for pERK (inhibition of ERK activation); assay type: cell-based, canine; details: Canis lupus familiaris; 4 μM compound, 48 hours, MDCK cells stably expressing GFP-tagged K-rasG12V; whole cell lysates; normalized to vehicle-treated control; read-out: % Inhibition of ERK activation when treated with 4 μM compound
Experimental: (§1) To determine the effect of compounds on localization of K-ras, Mardine Darby canine kidney epithelial (MDCK) cells stably expressing GFP-tagged K-rasG12V (oncogenic K-ras) grown on cover slips were treated with vehicle or compound (4 μM) for 48 hours and fixed with 4% paraformaldehyde. The coverslips were mounted in Mowiol and imaged by confocal microscopy (Nikon A1) using a 60× objective. Images were analyzed by ImageJ software. Densitometric analysis was performed on images to determine the degree of K-ras mislocalization. To determine the effect of compounds on K-ras function, MDCK cells stably expressing GFP-tagged K-rasG12V were treated with vehicle or compound (4 μM) for 48 hours. Following treatment, whole cell lysates were prepared and subjected SDS-PAGE and western blotting to quantify the level of phosphorylated ERK, a protein activated downstream of K-ras. All calculations were normalized to vehicle-treated control.
Western Immunoblotting for pERK: 2×10^5 cells/well were seeded in 6-well cell culture plates. 24 h after seeding, fresh medium containing 1% vehicle (DMSO) or 4 μM test compound (1:100 dilution, such that DMSO was 1%) was added and incubated for 48 h. Cells were lysed in Buffer B (50 mM Tris [pH 7.5], 75 mM NaCl, 25 mM NaF, 5 mM MgCl2, 5 mM EGTA, 1 mM dithiothreitol, 100 μM NaVO4, 1% Nonidet P-40 plus protease inhibitors). SDS-PAGE and immunoblotting with the anti-phospho-p44/42 mitogen-activated protein kinase (MAPK) (ERK1/2) antibody was performed using 20 μg of each whole cell lysate. Signal was detected by enhanced chemiluminescence (SuperSignal; Pierce, Thermo Fisher Scientific, Rockford, Ill.) and imaged by FluorChemQ (Alpha Inotech, San Leandro, Calif.). Quantification of intensities was performed using FluorChemQ software. Results were normalized to vehicle-treated control.

[2] = molecular target: T1, GFP-tagged K-rasG12V (oncogenic K-ras) in MDCK cells (Homo sapiens, UniProt P01116, G12V); assay: K-ras mislocalization, confocal fluorescence microscopy with densitometric analysis; assay type: cell-based, canine; details: 48 hours, MDCK cells stably expressing GFP-tagged K-rasG12V, normalized to vehicle-treated control
T1 construct: mGFP-tagged full length oncogenic mutant K-Ras (GFP-K-RasG12V); expressed in transfected cells
Experimental: FIGS. 1 & 2—Representative images showing degree of K-ras mislocalization with compound treatment (images corresponds with column 3 of Table 2). MDCK cells stably expressing GFP-tagged K-rasG12V were treated with vehicle or compound (4 μM) for 48 hours and fixed with 4% paraformaldehyde. The coverslips were mounted in Mowiol and imaged by confocal microscopy (Nikon A1) using a 60× objective. The number above each image corresponds the fendiline derivative code.
as §1
Fluorescence microscopy: 2×10^5 or 1×10^5 cells/well were seeded in 6- or 12-well cell culture plates, respectively, containing glass coverslips. 24 h after seeding, fresh medium containing 1% vehicle (Dimethyl sulfoxide, DMSO) or 4 μM test compound (1:100 dilution, such that DMSO was 1%) was added and incubated for 48 h, following which the cells were fixed with 4% paraformaldehyde and coverslips were mounted in Mowiol. Cells were imaged in the GFP wavelength (488 nm) using a confocal microscope (Nikon A1) with 60× objective. Images were saved in tagged imaged file format (tiff) and analyzed by ImageJ software. The densitometric ratio of plasma membrane localized K-Ras versus total K-Ras was calculated and normalized to vehicle-treated control.

[3] = test system: chemotaxis; assay: Inhibition of chemotaxis; details: preliminary data

% Mislocalization of K-ras when treated with 4 μM compound [2]: 20.53%
SMILES: CC(NCCC(c1ccccc1)c1ccccc1)c1ccccc1 (stereo not drawn) [Fendiline, 3,3-diphenyl-N-(1-phenylethyl)propan-1-amine]
inhibition at 4 µM [1]: 7.37%
Inhibition of chemotaxis [3]: effective at inhibiting chemotaxis at picomolar and nanomolar concentrations
